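Where inhibition never reached the appropriate level, the endpoint shown equals the highest concentration tested. Otherwise, values were interpolated linearly from a five-concentration, 48-hour dose response in 96-well plates. At the TGI there is no net growth.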 Where a SMILES comes first, the peptide text is derived from it. [ ]: non-standard residue; d: D form. The star is where a group is joined. ξ: configuration not given here. ξD = NC(CC(=O)O)C(=O)O; Ac3c = NC1(C(=O)O)CC1; Boc = CC(C)(C)OC(=O)*; OtBu = CC(C)(C)O*
Tests used:
Experiment in all cases: growth of human tumour cells (NCI), 48 h
[1] = test system: SK-OV-3 ovarian
[2] = test system: HOP-62 NSCLC
[3] = test system: SF-268 CNS
[4] = test system: UACC-62 melanoma
[5] = test system: SW-620 colon
[6] = test system: OVCAR-3 ovarian
[7] = test system: NCI-H23 lung
[8] = test system: EKVX NSCLC
[9] = test system: NCI-H226 lung
[10] = test system: SN12C renal
[11] = test system: SF-295 CNS
[12] = test system: MDA-MB-435
[13] = test system: SK-MEL-28 melanoma
[14] = test system: CCRF-CEM leukemia
[15] = test system: DU-145 prostate
[16] = test system: CAKI-1 renal
[17] = test system: UACC-257 melanoma
[18] = test system: SF-539 CNS
[19] = test system: HT29 colon
[20] = test system: MCF7 breast
[21] = test system: MALME-3M melanoma
[22] = test system: RXF 393 renal
[23] = test system: NCI-H460 lung
[24] = test system: OVCAR-4 ovarian
[25] = test system: M14 melanoma
[26] = test system: U251 CNS
[27] = test system: SNB-75 CNS
[28] = test system: HS 578T breast
[29] = test system: A549 NSCLC
[30] = test system: NCI-H522 lung
[31] = test system: BT-549 breast
[32] = test system: COLO 205 colon
[33] = test system: TK-10 renal
[34] = test system: ACHN renal
[35] = test system: 786-0 renal
[36] = test system: UO-31 renal
[37] = test system: HCT-116 colon
[38] = test system: IGROV1 ovarian
[39] = test system: OVCAR-5 ovarian
[40] = test system: A498 renal
[41] = test system: SK-MEL-5 melanoma
[42] = test system: LOX IMVI melanoma
[43] = test system: PC-3 prostate
[44] = test system: MDA-N
[45] = test system: MDA-MB-231 breast
[46] = test system: RPMI-8226 leukemia
[47] = test system: K-562 leukemia
[48] = test system: KM12 colon
[49] = test system: SNB-19 CNS
[50] = test system: NCI/ADR-RES ovarian
[51] = test system: OVCAR-8 ovarian
[52] = test system: HCT-15 colon
[53] = test system: MOLT-4 leukemia
[54] = test system: T-47D breast
[55] = test system: HCC-2998 colon
[56] = test system: SK-MEL-2 melanoma

Measured: TGI

COC(=O)C1(NC(=O)C(CC(=O)OC(C)(C)C)NC(=O)OC(C)(C)C)CC1 (stereo unspecified) (Boc-[ξD](OtBu)-[Ac3c]-OMe)
> 100 µM: [1] | [2] | [3] | [4] | [5] | [6] | [7] | [8] | [9] | [10] | [11] | [12] | [13] | [14] | [15] | [16] | [17] | [18] | [19] | [20] | [21] | [22] | [23] | [24] | [25] | [26] | [27] | [28] | [29] | [30] | [31] | [32] | [33] | [34] | [35] | [36] | [37] | [38] | [39] | [40] | [41] | [42] | [43] | [44] | [45] | [46] | [47] | [48] | [49] | [50] | [51] | [52] | [53] | [54] | [55] | [56]
